Data reported in US11154529B2, “Phosphaplatin liquid formulations” (Phosplatin Therapeutics Inc., priority 2016, dated 2021).

Test: Ready-to-use formulation stability at 2-8° C., 5 mg/mL (R,R)-pyrodach-2 in 10 mM Potassium Phosphate Buffer at pH 7.4, 10 mL vials
Format: physicochemical
Experimental: A scalable and commercially viable process for the manufacture of a ready-to-use formulation of (R,R)-pyrodach-2 in 10 mM buffer adjusted to a pH of 7.0-7.5 comprises the steps of: a) preparing a 10 mM aqueous solution of buffer; b) adding sufficient hydroxide base to effect neutralization of the added (R,R)-pyrodach-2 to reach a pH of about 7; c) adding (R,R)-pyrodach-2 and allowing it to dissolve; d) if necessary adding additional hydroxide to adjust the pH into a range of about 7.0-7.5; and e) filtering the solution under sterile conditions, filling the solution into glass vials, and covering it with a stopper and/or a cap. Stability data on two large batches of 5 mg/mL (R,R)-pyrodach-2 in 10 mM potassium phosphate buffer were generated. One such batch at pH=7.2 was evaluated at both 25° C./60% RH and refrigerated (2-8° C.) conditions, with data summarized in Table 4 and Table 5, respectively. […] Similar observations have been made for the ready-to-use liquid formulation at pH7.4, as illustrated in Table 6 and Table 7.
• Transfer 4564.6 mg±0.5 mg of potassium phosphate dibasic, trihydrate to a 2-L volumetric flask. • Fill flask to approximately 75% volume with water, swirl as needed to dissolve all solids. • Volumetrically transfer 32.0 mL of 1N KOH to flask. • Dilute flask to volume with water and mix well. • Record pH of final solution. This is the diluent. • Transfer 7653.1 mg±0.5 mg of (R,R)-pyrodach-2 to a compounding vessel. • Transfer 1500 mL of the diluent to the vessel and stir to dissolve solids. • Record pH of final solution. • Pass entire solution through a 0.22 μm sterile filter membrane into a sterile collection vessel. • Calculate (R,R)-pyrodach-2 solution concentration
To a […] glass beaker equipped with mechanical mixer was add 24645.5 g of sterile water for injection. With agitation 47.03 gm of dibasic potassium phosphate USP was added and the solids allowed to dissolve. To the stirred solution was added 253.8 gm of 1.00 N potassium hydroxide. Sterile water for injection USP (900.0 gm) was used as a rinse to facilitate both additions. With vigorous agitation, (R,R)-pyrodach-2 (201.87 gm) was slowly added and agitation continued until all of the solids dissolved. Sterile water for injection USP (900.0 gm) was used as a rinse to facilitate the addition. The pH was determined to be 6.7. A total of 85 mL of 1.00 N potassium hydroxide was added in 5.0 mL aliquots to adjust the pH to 7.3. The solution was sterile filtered through 0.22μ Millipore Millipack filter and aseptically filled, 10 ml top a vial in 10 mL in 10 cc Wheaton clear molded vails, stoppered with a 20 mm stopper and crimp seal capped.

Question: Which results are given for O=P1(O)OP(=O)(O)[O][Pt]2([NH][C@@H]3CCCC[C@H]3[NH]2)[O]1 (stereo partly drawn) [(R,R)-pyrodach-2, (R,R)-trans-1,2-cyclohexanediamine-(dihydrogenpyrophosphato)platinum(II)]?
Answer: (DACH) Pt-diaquo (~RRT 0.3) (1 Month): 0.15%; (DACH) Pt-monoaquo (~RRT 0.7) (1 Month): 1.04%; Assay (Potency) (1 Month): 98.7%; PT-112 Dimer (~RRT 4.0) (1 Month): 0.33%; RRT 0.50 (1 Month): 0.06%; RRT 0.56 (1 Month): 0.10%; RRT 0.68 (1 Month): 0.19%; RRT 0.86 (1 Month): 0.05%; RRT 3.1-3.2 (1 Month): 0.13%; Total Related Substances (1 Month): 2%; pH (1 Month): 7.4; (DACH) Pt-diaquo (~RRT 0.3) (3 Month): 0.14%; (DACH) Pt-monoaquo (~RRT 0.7) (3 Month): 0.92%; Assay (Potency) (3 Month): 99.7%; PT-112 Dimer (~RRT 4.0) (3 Month): 0.37%; RRT 0.50 (3 Month): 0.06%; RRT 0.56 (3 Month): 0.12%; RRT 0.68 (3 Month): 0.11%; RRT 3.1-3.2 (3 Month): 0.25%; Total Related Substances (3 Month): 2%; pH (3 Month): 7.4; (DACH) Pt-diaquo (~RRT 0.3) (6 Month): 0.17%; (DACH) Pt-monoaquo (~RRT 0.7) (6 Month): 0.28%; Assay (Potency) (6 Month): 98.2%; PT-112 Dimer (~RRT 4.0) (6 Month): 0.36%; RRT 0.46 (6 Month): 0.06%; RRT 0.50 (6 Month): 0.18%; RRT 0.56 (6 Month): 0.06%; RRT 0.68 (6 Month): 0.16%; RRT 0.86 (6 Month): 0.05%; RRT 3.1-3.2 (6 Month): 0.38%; Total Related Substances (6 Month): 2%; pH (6 Month): 7.4; Particulate Matter (Light Obscuration) (6 Month, first value): 83 particles particles per container; Particulate Matter (Light Obscuration) (6 Month, second value): 1 particles particles per container; (DACH) Pt-diaquo (~RRT 0.3) (9 Month): 0.14%; (DACH) Pt-monoaquo (~RRT 0.7) (9 Month): 0.81%; Assay (Potency) (9 Month): 100.2%; PT-112 Dimer (~RRT 4.0) (9 Month): 0.33%; RRT 0.46 (9 Month): 0.05%; RRT 0.50 (9 Month): 0.18%; RRT 0.56 (9 Month): 0.07%; RRT 0.68 (9 Month): 0.08%; RRT 0.86 (9 Month): 0.05%; RRT 3.1-3.2 (9 Month): 0.39%; RRT 3.58 (9 Month): 0.07%; Total Related Substances (9 Month): 2%; pH (9 Month): 7.4; (DACH) Pt-diaquo (~RRT 0.3) (12 Month): 0.12%; (DACH) Pt-monoaquo (~RRT 0.7) (12 Month): 0.96%; Assay (Potency) (12 Month): 98.7%; PT-112 Dimer (~RRT 4.0) (12 Month): 0.34%; RRT 0.50 (12 Month): 0.15%; RRT 0.56 (12 Month): 0.16%; RRT 0.68 (12 Month): 0.11%; RRT 0.86 (12 Month): 0.05%; RRT 3.1-3.2 (12 Month): 0.48%; Total Related Substances (12 Month): 2%; pH (12 Month): 7.4; Particulate Matter (Light Obscuration) (12 Month, first value): 124 particles per container; Particulate Matter (Light Obscuration) (12 Month, second value): 6 particles particles per container; (DACH) Pt-diaquo (~RRT 0.3) (15 Month): 0.14%; (DACH) Pt-monoaquo (~RRT 0.7) (15 Month): 0.94%; Assay (Potency) (15 Month): 98.0%; PT-112 Dimer (~RRT 4.0) (15 Month): 0.34%; RRT 0.50 (15 Month): 0.16%; RRT 0.56 (15 Month): 0.17%; RRT 0.68 (15 Month): 0.12%; RRT 0.86 (15 Month): 0.06%; RRT 3.1-3.2 (15 Month): 0.59%; RRT 3.58 (15 Month): 0.07%; Total Related Substances (15 Month): 3%; pH (15 Month): 7.4; (DACH) Pt-diaquo (~RRT 0.3) (18 Month): 0.13%; (DACH) Pt-monoaquo (~RRT 0.7) (18 Month): 0.76%; Assay (Potency) (18 Month): 97.5%; PT-112 Dimer (~RRT 4.0) (18 Month): 0.33%; RRT 0.46 (18 Month): 0.09%; RRT 0.50 (18 Month): 0.26%; RRT 0.56 (18 Month): 0.06%; RRT 0.68 (18 Month): 0.08%; RRT 0.86 (18 Month): 0.05%; RRT 3.1-3.2 (18 Month): 0.58%; RRT 3.58 (18 Month): 0.10%; Total Related Substances (18 Month): 2%; pH (18 Month): 7.4; (DACH) Pt-diaquo (~RRT 0.3) (21 Month): 0.12%; (DACH) Pt-monoaquo (~RRT 0.7) (21 Month): 1.07%; Assay (Potency) (21 Month): 97.4%; PT-112 Dimer (~RRT 4.0) (21 Month): 0.35%; RRT 0.46 (21 Month): 0.07%; RRT 0.50 (21 Month): 0.23%; RRT 0.56 (21 Month): 0.12%; RRT 0.68 (21 Month): 0.14%; RRT 0.86 (21 Month): 0.05%; RRT 3.1-3.2 (21 Month): 0.67%; RRT 3.58 (21 Month): 0.10%; Total Related Substances (21 Month): 3%; pH (21 Month): 7.4; (DACH) Pt-diaquo (~RRT 0.3) (24 Month): 0.11%; (DACH) Pt-monoaquo (~RRT 0.7) (24 Month): 0.93%; Assay (Potency) (24 Month): 96.5%; PT-112 Dimer (~RRT 4.0) (24 Month): 0.33%; RRT 0.46 (24 Month): 0.08%; RRT 0.50 (24 Month): 0.25%; RRT 0.56 (24 Month): 0.12%; RRT 0.68 (24 Month): 0.11%; RRT 0.86 (24 Month): 0.06%; RRT 3.1-3.2 (24 Month): 0.65%; RRT 3.58 (24 Month): 0.14%; Total Related Substances (24 Month): 3%; pH (24 Month): 7.4; (DACH) Pt-diaquo (~RRT 0.3) (Initial): 0.16%; (DACH) Pt-monoaquo (~RRT 0.7) (Initial): 0.84%; Assay (Potency) (Initial): 98.1%; PT-112 Dimer (~RRT 4.0) (Initial): 0.34%; RRT 0.50 (Initial): 0.06%; RRT 0.56 (Initial): 0.08%; RRT 0.68 (Initial): 0.09%; RRT 3.1-3.2 (Initial): 0.11%; Total Related Substances (Initial): 2%; pH (Initial): 7.4; Particulate Matter (Light Obscuration) (Initial, first value): 30 particles particles per container; Particulate Matter (Light Obscuration) (Initial, second value): 11 particles particles per container
